Data taken from patent publication US7323314B2, “Members of the capsaicin/vanilloid receptor family of proteins and uses thereof” (Bayer HealthCare AG, priority 1998, dated 2008).
Values belong to the compound of their own block, whether it stands above or below them.

What was measured:
Human VR2 [1] = molecular target: T1, Human VR2 (Homo sapiens, UniProt Q9Y5S1); experiment: Whole-cell patch-clamp of VR2 transiently expressed in HEK293 cells; assay type: cell-based
T1 construct: expressed in transfected cells; host or cells: Xenopus oocytes injected with cRNA
T1 sequence (Q9Y5S1 1-764): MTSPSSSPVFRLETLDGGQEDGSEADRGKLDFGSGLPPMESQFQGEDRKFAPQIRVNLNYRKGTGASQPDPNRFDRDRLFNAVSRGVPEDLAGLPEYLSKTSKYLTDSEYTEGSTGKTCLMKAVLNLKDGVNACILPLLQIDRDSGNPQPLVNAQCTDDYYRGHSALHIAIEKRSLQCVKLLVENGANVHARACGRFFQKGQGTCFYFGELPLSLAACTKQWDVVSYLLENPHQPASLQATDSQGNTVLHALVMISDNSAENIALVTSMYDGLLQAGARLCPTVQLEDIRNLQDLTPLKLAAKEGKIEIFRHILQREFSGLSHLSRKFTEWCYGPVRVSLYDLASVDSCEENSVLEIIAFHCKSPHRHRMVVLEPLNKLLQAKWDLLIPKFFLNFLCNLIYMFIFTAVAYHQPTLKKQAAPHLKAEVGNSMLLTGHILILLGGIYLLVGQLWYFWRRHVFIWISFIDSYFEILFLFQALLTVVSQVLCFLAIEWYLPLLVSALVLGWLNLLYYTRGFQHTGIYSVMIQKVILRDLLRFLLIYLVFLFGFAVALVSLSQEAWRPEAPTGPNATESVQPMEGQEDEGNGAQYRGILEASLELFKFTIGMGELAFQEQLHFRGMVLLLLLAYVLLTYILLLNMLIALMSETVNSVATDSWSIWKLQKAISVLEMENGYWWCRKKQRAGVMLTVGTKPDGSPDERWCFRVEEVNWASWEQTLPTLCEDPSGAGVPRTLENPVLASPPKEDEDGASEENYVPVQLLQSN
Protocol: Human VR2 was functionally characterized in both HEK293 cells and Xenopus oocytes using electrophysiological methods. VR2 (in the pcDNA3.1 vector purchased by Invitrogen) was transiently expressed in HEK293 cells (ATCC) and recordings were performed 48 hours after transfection of cells using the whole-cell patch-clamp method (described in Bertil Hille, Ionin Channels of excitable membranes, 1992; Hammill et al. (1981) Pluger Arch. 391:85-100).

Human VR2 [2] = molecular target: T1, Human VR2; experiment: Binding of [3H]-resiniferatoxin to membranes isolated from HEK293 cell homogenates (VR2); details: 0.1-10 nM concentration
human VR1 = molecular target: T2, human VR1 (Homo sapiens, UniProt Q8NER1, A11T/S41P/T469I); experiment: Binding of [3H]-resiniferatoxin to membranes isolated from HEK293 cell homogenates (VR1); details: 0.1-10 nM concentration
T2 construct: expressed in transfected cells; host or cells: HEK293 cells (membranes)

Human VR2 [3] = molecular target: T1, Human VR2; experiment: Two-electrode voltage-clamp of VR2 in Xenopus oocytes; assay type: cell-based; details: heat stimulation (48-50° C.), 1-10 μM concentration
Protocol: For the oocyte studies, human VR2 was subcloned into an oocyte expression vector containing 5′- and 3′-UTR of Xenopus β-globin (Chiara et al. (1999) Biochemistry 38(20)6689-6698). In vitro trasncription was carried out as described in Chiara et al. (supra) and cRNA (10-100 ng) was then injected into the oocytes. VR2 function was characterized in the oocytes 48 hours after cRNA injection using a standard two-electrode voltage-clamp.

T2 sequence (Q8NER1 whole entry A11T/S41P/T469I): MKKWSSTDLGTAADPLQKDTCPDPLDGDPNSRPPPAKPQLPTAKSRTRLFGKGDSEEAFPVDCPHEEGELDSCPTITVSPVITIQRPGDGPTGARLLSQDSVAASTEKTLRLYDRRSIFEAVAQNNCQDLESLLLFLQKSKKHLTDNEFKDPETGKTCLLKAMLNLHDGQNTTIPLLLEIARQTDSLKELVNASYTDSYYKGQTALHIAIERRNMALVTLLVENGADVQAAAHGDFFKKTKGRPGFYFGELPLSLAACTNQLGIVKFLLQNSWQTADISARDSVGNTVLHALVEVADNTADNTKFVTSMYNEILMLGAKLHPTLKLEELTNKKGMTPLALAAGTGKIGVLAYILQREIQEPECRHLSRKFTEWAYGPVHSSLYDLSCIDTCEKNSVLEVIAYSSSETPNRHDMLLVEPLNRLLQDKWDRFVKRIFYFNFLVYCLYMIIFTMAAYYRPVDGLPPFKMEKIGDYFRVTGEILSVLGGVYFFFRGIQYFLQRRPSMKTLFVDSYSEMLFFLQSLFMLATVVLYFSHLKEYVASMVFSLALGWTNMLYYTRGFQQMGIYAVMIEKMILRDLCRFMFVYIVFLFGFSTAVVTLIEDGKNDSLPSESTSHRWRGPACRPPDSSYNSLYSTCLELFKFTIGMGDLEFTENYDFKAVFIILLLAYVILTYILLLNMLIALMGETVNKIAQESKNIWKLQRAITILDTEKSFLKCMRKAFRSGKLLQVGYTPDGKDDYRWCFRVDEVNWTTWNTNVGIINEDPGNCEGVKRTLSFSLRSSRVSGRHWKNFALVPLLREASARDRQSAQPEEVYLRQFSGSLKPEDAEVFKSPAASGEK

induction of currents from VR2 (Human VR2 [1]; 1-10 μM concentration): do not induce any currents
SMILES: COc1cc(CNC(=O)CCCC/C=C/C(C)C)ccc1O [Capsaicin, capsaicin]

SMILES: C=C(C)[C@]12C[C@@H](C)[C@@]34O[C@](Cc5ccccc5)(O[C@@H]1[C@@H]3C=C(COC(=O)Cc1ccc(O)c(OC)c1)C[C@]1(O)C(=O)C(C)=C[C@@H]41)O2 [resiniferatoxin]
induction of currents from VR2 (Human VR2 [1]; 0.1-3 μM concentration): do not induce any currents
specific binding to VR2 (Human VR2 [2]): no specific binding
binding to human VR1 (human VR1): high affinities

block of heat-evoked currents of VR2 (Human VR2 [1]; heat stimulation (>50° C.), 10 μM concentration): reversibly blocked
SMILES: Oc1cc2c(cc1O)CN(C(=S)NCCc1ccc(Cl)cc1)CCC2 [capsazepin, capsazepine]
block of the heat response of VR2 (Human VR2 [3]): blocks the heat response of VR2 reversibly
